# System: HL-60 cells (human acute myeloid leukemia cells)
# Test: alamarBlue proliferation assay with HL-60 cells
# Type: cell-based
# Settings: 120 h, 5 days, relative to DMSO baseline level of 1.0, read-out: AVEw, weighted arithmetic mean of normalized fluorescence intensity values (Activity Range), HL-60 proliferation
# Method: The antiproliferative activities of compounds falling under formula I, formula II, formula III, formula IV and formula V were investigated on cells or cell lines originating from a disorder of the myeloid cell compartment, the neuroendocrine system, the cervix, and the mucosal epithelium, as well as from the skin epithelium. To this end, HL-60 cells, TT cells, HeLa cells, CAL-27 cells and human primary epidermal keratinocytes (HPEK) were seeded into 96-well plates suitable for fluorescence assays (CORNING #3598) at following initial cell numbers: 1000 cells per well for HL-60; 9000 cells per well for TT; 2000 cells per well for HeLa, 2000 cells per well for CAL-27, 2000 cells per well for HPEK. The cells were treated with compounds at indicated final concentrations (diluted from the 1000× stock-solutions in DMSO to a final DMSO concentration of 0.1% v/v) or with the empty carrier DMSO at 0.1% v/v as control for 5 days. At day 5 after starting the treatments the cells were subjected to the alamarBlue® Proliferation Assay (Bio-Rad Serotec GmbH, BUF012B) according to the protocol of the manufacturer. The readout was taken with a multi-well plate-reader in the fluorescence mode with applying a filter for excitation at 560 nm (band width 10 nm) and for emission at 590 nm (band width 10 nm). Resveratrol (RES) treatment was included as control for growth inhibition.
# The assays were performed in duplicate or more replicates of independent single experiments each containing a six-fold replicate for every condition. For every individual plate, the measured fluorescence intensity values of the conditions with compound treatment were normalized against the corresponding equally weighted arithmetic mean of the fluorescence intensity values of the six DMSO treated control wells in order to obtain the relative values to a baseline level of 1.0. The statistical calculations were performed in analogy to the luciferase assay as described above. To this end, two independent outlier analyses were performed according to the methods by Peirce and Chauvenet (Ross, Journal of Engineering Technology 2003, 1-12). Outliers confirmed by at least one of the methods were excluded from the calculations but not more than one value out of six per compound within a single experiment. The weighted arithmetic mean AVEw for each compound was calculated from the normalized values over all independent replicates of the single experiments comprising the six replicates each. The corresponding standard deviation for the weighted arithmetic mean was calculated according to the method described by Bronstein et al. (Bronstein, Semendjajew, Musiol, Mühlig, Taschenbuch der Mathematik, 5th edition 2001 (German), publisher: Verlag Harri Deutsch, Frankfurt am Main and Thun) and was combined with the Gauß′ error propagation associated with the performed calculation for the normalization. The resulting standard deviation is herein referred to as “combined standard deviation”.
# HL-60 cells were cultivated according to the protocol of the provider in RPMI 1640 medium (Fisherscientific, #11554526) containing 10% fetal bovine serum (Fisherscientific, #15517589).
# A compound is considered as a growth inhibitor of HL-60 cells, if—at a reference concentration of 20 μM—the weighted arithmetic mean of the normalized fluorescence intensity values after addition of the corresponding combined standard deviation amounts to 0.9 or lower, in particular to 0.8 or lower, 0.7 or lower, 0.6 or lower, 0.4 or lower, and 0.2 or lower, relative to the overall basis level of 1.0. The overall basis level was calculated as the weighted arithmetic mean of all normalized values from the DMSO control measurements in analogy to the calculations performed for the test-compounds. The corresponding combined standard deviation for the DMSO values amounts to less than 1·10^−2.
row,SMILES,activity at 20 µM
1,"CCc1ccc(Oc2ccc(C(=O)O)cc2)cc1 [Compound 002, 4-(4-ethylphenoxy)benzoic acid]",80 to 90%
2,"CCOC(=O)c1ccc(Oc2ccc(C(C)C)cc2)cc1 [Compound 054, ethyl 4-(4-isopropylphenoxy)benzoate]",80 to 90%
3,"O=C(O)c1ccc(Oc2ccc(C3CC4CCC3CC4)cc2)nc1 (stereo not shown) [Compound 087, 6-(4-((1s,4s)-bicyclo[2.2.2]octan-2-yl)phenoxy)nicotinic acid]",80 to 90%
4,"CCc1ccc(Oc2ccc(C(=O)NO)cc2)cc1 [Compound 165, 4-(4-ethylphenoxy)-N-hydroxybenzamide]",80 to 90%
5,"CCCCc1ccc(Oc2ccc(C(=O)N(C)C)cc2)cc1 [Compound 218, 4-(4-butylphenoxy)-N,N-dimethylbenzamide]",40 to 60%
6,"CCC(C)(C)c1ccc(Oc2ccc(C(=O)N(C)C)cc2)cc1 [Compound 223, N,N-dimethyl-4-(4-(tert-pentyl)phenoxy)benzamide]",70 to 80%
7,"CCCCCc1ccc(Oc2ccc(C(N)=O)cn2)cc1 [Compound 245, 6-(4-pentylphenoxy)nicotinamide]",80 to 90%
8,"CCC(C)(C)c1ccc(Oc2ccc(C(N)=O)cn2)cc1 [Compound 248, 6-(4-(tert-pentyl)phenoxy)nicotinamide]",80 to 90%
9,"CCC(C)(C)c1ccc(Oc2ccc(C(=O)NC)cn2)cc1 [Compound 298, N-methyl-6-(4-(tert-pentyl)phenoxy)nicotinamide]",80 to 90%
10,"CCCCCc1ccc(Oc2ccc(C(=O)N(C)C)cn2)cc1 [Compound 320, N,N-dimethyl-6-(4-pentylphenoxy)nicotinamide]",40 to 60%
11,"CCOC(=O)c1ccc(Oc2ccc(C34CC5CC(CC(C5)C3)C4)cc2)c(F)c1 [Compound 414, ethyl 4-(4-((3r,5r,7r)-adamantan-1-yl)phenoxy)-3-fluorobenzoate]",60 to 70%
12,"O=C(O)c1cnc(Oc2ccc(C(F)(F)F)cc2)c(F)c1 [Compound 427, 5-fluoro-6-(4-(trifluoromethyl)phenoxy)nicotinic acid]",80 to 90%
13,"CCOC(=O)c1cnc(Oc2ccc(C(C)(C)CC)cc2)c(F)c1 [Compound 477, ethyl 5-fluoro-6-(4-(tert-pentyl)phenoxy)nicotinate]",80 to 90%
14,"CCOC(=O)c1cnc(Oc2ccc(C3CCCCC3)cc2)c(F)c1 [Compound 488, ethyl 6-(4-cyclohexylphenoxy)-5-fluoronicotinate]",70 to 80%
15,"CCOC(=O)c1cnc(Oc2ccc(C34CC5CC(CC(C5)C3)C4)cc2)c(F)c1 [Compound 492, ethyl 6-(4-((3r,5r,7r)-adamantan-1-yl)phenoxy)-5-fluoronicotinate]",60 to 70%
16,"CCC(C)(C)c1ccc(Oc2ccc(C(=O)N(C)C)cc2F)cc1 [Compound 581, 3-fluoro-N,N-dimethyl-4-(4-(tert-pentyl)phenoxy)benzamide]",70 to 80%

row,SMILES,activity at 20 µM
1,"CN(C)C(=O)c1ccc(Oc2ccc(C3CCCCC3)cc2)c(F)c1 [Compound 592, 4-(4-cyclohexylphenoxy)-3-fluoro-N,N-dimethylbenzamide]",80 to 90%
2,"CNC(=O)c1cnc(Oc2ccc(C34CC5CC(CC(C5)C3)C4)cc2)c(F)c1 [Compound 674, 6-(4-((3r,5r,7r)-adamantan-1-yl)phenoxy)-5-fluoro-N-methylnicotinamide]",70 to 80%
3,"CCC(C)(C)c1ccc(Oc2ncc(C(=O)N(C)C)cc2F)cc1 [Compound 685, 5-fluoro-N,N-dimethyl-6-(4-(tert-pentyl)phenoxy)nicotinamide]",70 to 80%
4,"CN(C)C(=O)c1cnc(Oc2ccc(C34CC5CC(CC(C5)C3)C4)cc2)c(F)c1 [Compound 700, 6-(4-((3r,5r,7r)-adamantan-1-yl)phenoxy)-5-fluoro-N,N-dimethylnicotinamide]",60 to 70%
5,"CCOC(=O)c1ccc(Oc2ccc(C3(C(F)(F)F)CC3)cc2)c(F)c1 [Compound 723, ethyl 3-fluoro-4-(4-(1-(trifluoromethyl)cyclopropyl)phenoxy)benzoate]",80 to 90%
6,"O=C(O)c1ccc(Oc2ccc(C3(C(F)(F)F)CC3)cc2Cl)nc1 [Compound 738, 6-(2-chloro-4-(1-(trifluoromethyl)cyclopropyl)phenoxy)nicotinic acid]",80 to 90%
7,"COC(=O)c1ccc(Oc2ccc(C3(C(F)(F)F)CC3)cc2)nc1 [Compound 739, methyl 6-(4-(1-(trifluoromethyl)cyclopropyl)phenoxy)nicotinate]",80 to 90%
8,"COC(=O)c1ccc(Oc2ccc(C3(C(F)(F)C(F)(F)F)CC3)cc2)nc1 [Compound 740, methyl 6-(4-(1-(perfluoroethyl)cyclopropyl)phenoxy)nicotinate]",80 to 90%
9,"CCOC(=O)c1ccc(Oc2ccc(C3(C(F)(F)F)CC3)cc2Cl)nc1 [Compound 756, ethyl 6-(2-chloro-4-(1-(trifluoromethyl)cyclopropyl)phenoxy)nicotinate]",70 to 80%
10,"CN(C)C(=O)c1ccc(Oc2ccc(C3(C(F)(F)C(F)(F)F)CC3)cc2)cc1 [Compound 785, N,N-dimethyl-4-(4-(1-(perfluoroethyl)cyclopropyl)phenoxy)benzamide]",70 to 80%
11,"CN(C)C(=O)c1ccc(Oc2ccc(C3(C(F)(F)F)CC3)cc2)c(F)c1 [Compound 786, 3-fluoro-N,N-dimethyl-4-(4-(1-(trifluoromethyl)cyclopropyl)phenoxy)benzamide]",70 to 80%
12,"CN(C)C(=O)c1ccc(Oc2ccc(C3(C(F)(F)F)CC3)cc2Cl)cc1 [Compound 792, 4-(2-chloro-4-(1-(trifluoromethyl)cyclopropyl)phenoxy)-N,N-dimethylbenzamide]",80 to 90%
13,"NC(=O)c1ccc(Oc2ccc(C3(C(F)(F)F)CC3)cc2)nc1 [Compound 793, 6-(4-(1-(trifluoromethyl)cyclopropyl)phenoxy)nicotinamide]",80 to 90%
14,CNC(=O)c1ccc(Oc2ccc(C3(C(F)(F)F)CC3)cc2)nc1 [Compound 811],80 to 90%
15,"CN(C)C(=O)c1ccc(Oc2ccc(C3(C(F)(F)C(F)(F)F)CC3)cc2)nc1 [Compound 821, N,N-dimethyl-6-(4-(1-(perfluoroethyl)cyclopropyl)phenoxy)nicotinamide]",60 to 70%
